Assay results taken from PubChem BioAssay (NCI).
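In this assay, cells in 96-well plates receive the compound at five concentrations for 48 hours. Endpoints are linearly interpolated between the surrounding concentrations. TGI denotes the concentration required for complete inhibition of growth.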

These molecules were tested on SW-620 colon (assay: NCI anticancer screen, dose series, 48 h).
For `CC(C)C(NC(=O)C(Cc1ccccc1)NC(=O)[C@H]1CCC[C@H]1NC(=O)C(Cc1ccc(OC(C)(C)C)cc1)NC(=O)OC(C)(C)C)C(N)=O` (stereo partly specified), the TGI was 51.3 µM. `Cc1ccc(NC(=O)CC(=O)n2nc(C)c(N=Nc3cccc(C)c3)c2C)cc1` gave a TGI greater than 100 µM. Work on `N#C/C(=C\c1ccc2[nH]ccc2c1)C(=O)c1ccc(O)c(O)c1` yielded a TGI greater than 100 µM. In the case of `O=[N+]([O-])/C(C(Cl)=C(Cl)Cl)=C(/Nc1ccccc1)Sc1ccccc1`, the TGI is reported as 51.1 µM. `Cc1ccc2c(c1C)C(=O)/C(=C/c1cccc(C)c1C(=O)O)C2` gave a TGI greater than 100 µM. Molecule `O=C1N(c2ccccc2)C(=S)/C(=C/c2ccc(Cl)cc2)N1c1ccc(Cl)cc1` has a TGI greater than 100 µM. Molecule `O=C1C=C(N2CCN(CCOCCO)CC2)C(=O)c2c(O)ccc(O)c21` has a TGI of 6.48 µM. `CC/C(N)=N\NC(=O)OC(C)(C)C` showed a TGI greater than 100 µM. In the case of `CC(=O)NC1C(OCc2ccccc2)OC(CO)C(O)C1OCC(=O)N[C@@H](C)C(=O)N[C@H](CCC(=O)NCCCNc1ccc([N+](=O)[O-])c2[nH]c3ccccc3c(=O)c12)C(N)=O` (stereo partly specified), the TGI is reported as greater than 100 µM. `CN(C)CCCNC(=O)c1cn2c(ccc3sc4ccccc4c(=O)c32)n1` showed a TGI of 3.15 µM. With `O=P(O)(O)CN1CCNCCN(CP(=O)(O)O)CC1` the TGI was greater than 100 µM. `c1cc2c(cc1C1=NCCN1)c1cc(C3=NCCN3)ccc1n2CC1CCCCC1` showed a TGI greater than 100 µM. `C=C1CC2[C@H](C)C(=O)CCC2(C)C2=C1C1CCC(C(C)CCC(=C)C(C)C(=O)O)C1(C)CC2=O` (stereo partly specified) was tested, and the TGI was greater than 100 µM. `CC(C)NC(=O)OCc1c(COC(=O)NC(C)C)c(-c2cc[n+](COC(=O)C3CCCCC3)cc2)n2c1CCC2` showed a TGI greater than 100 µM. `O=[N+]([O-])C(C=C(n1nnc2ccccc21)n1nnc2ccccc21)=C(n1nnc2ccccc21)n1nnc2ccccc21` was tested, and the TGI was greater than 100 µM.

What follows are molecules tested on EKVX NSCLC (assay: NCI anticancer screen, dose series, 48 h).
In the case of `CCNC(=S)N/N=C(\C)c1cccc(C)n1`, the TGI is reported as greater than 100 µM. With `CN1CCN([C@H]2C[C@H]3[C@@H]4CC=C5C[C@@H](O)CC[C@]5(C)[C@H]4CC[C@]3(C)[C@H]2O)CC1` the TGI was greater than 100 µM. For `CC1C2(C)OCC(C#N)(C(=N)O2)C1(C#N)C#N` (stereo unspecified), the TGI was 52.7 µM. Work on `C=CC[C@H](N=C(SC)SC)C(=O)N1C(=O)N(C)[C@@H](C)[C@H]1c1ccccc1` yielded a TGI of 78.4 µM. `CC(=O)c1sc2[n+](c1C)C(=O)/C(=C\c1ccccc1Cl)S2` showed a TGI of 80.7 µM. `CCCCCCCCCCCCOP(=O)(O)OP(=O)(O)OCC1OC(n2cc(C)c(=O)[nH]c2=O)CC1O` (stereo unspecified) showed a TGI greater than 100 µM. For `O=C1c2cc([N+](=O)[O-])sc2C(=O)c2c([N+](=O)[O-])csc21`, the TGI was 3.4 µM. Work on `C[C@H](CCC(=O)NCC(=O)O)[C@H]1CC[C@H]2[C@@H]3[C@H](O)C[C@@H]4C[C@H](O)CC[C@]4(C)[C@H]3CC[C@]12C` yielded a TGI greater than 100 µM. `CCOc1cc2c(cc1O)C(N)C[C@@H]1[C@@H]2CC[C@]2(C)[C@@H](O)CC[C@@H]12` (stereo partly specified) was tested, and the TGI was greater than 100 µM. For `CC(C)C(NC(=O)C(Cc1ccccc1)NC(=O)[C@H]1CCC[C@H]1NC(=O)C(Cc1ccc(OC(C)(C)C)cc1)NC(=O)OC(C)(C)C)C(N)=O` (stereo partly specified), the TGI was greater than 100 µM. Molecule `Cc1ccc(NC(=O)CC(=O)n2nc(C)c(N=Nc3cccc(C)c3)c2C)cc1` has a TGI greater than 100 µM. In the case of `N#C/C(=C\c1ccc2[nH]ccc2c1)C(=O)c1ccc(O)c(O)c1`, the TGI is reported as greater than 100 µM. `O=[N+]([O-])/C(C(Cl)=C(Cl)Cl)=C(/Nc1ccccc1)Sc1ccccc1` showed a TGI of 38 µM. Molecule `Cc1ccc2c(c1C)C(=O)/C(=C/c1cccc(C)c1C(=O)O)C2` has a TGI greater than 100 µM. For `O=C1N(c2ccccc2)C(=S)/C(=C/c2ccc(Cl)cc2)N1c1ccc(Cl)cc1`, the TGI was greater than 100 µM. For `O=C1C=C(N2CCN(CCOCCO)CC2)C(=O)c2c(O)ccc(O)c21`, the TGI was 33.9 µM. With `CC/C(N)=N\NC(=O)OC(C)(C)C` the TGI was greater than 100 µM. `CC(=O)NC1C(OCc2ccccc2)OC(CO)C(O)C1OCC(=O)N[C@@H](C)C(=O)N[C@H](CCC(=O)NCCCNc1ccc([N+](=O)[O-])c2[nH]c3ccccc3c(=O)c12)C(N)=O` (stereo partly specified) was tested, and the TGI was greater than 100 µM. `CN(C)CCCNC(=O)c1cn2c(ccc3sc4ccccc4c(=O)c32)n1` gave a TGI of 31.6 µM. With `O=P(O)(O)CN1CCNCCN(CP(=O)(O)O)CC1` the TGI was greater than 100 µM. `c1cc2c(cc1C1=NCCN1)c1cc(C3=NCCN3)ccc1n2CC1CCCCC1` was tested, and the TGI was 69.2 µM. With `C=C1CC2[C@H](C)C(=O)CCC2(C)C2=C1C1CCC(C(C)CCC(=C)C(C)C(=O)O)C1(C)CC2=O` (stereo partly specified) the TGI was greater than 100 µM. `CC(C)NC(=O)OCc1c(COC(=O)NC(C)C)c(-c2cc[n+](COC(=O)C3CCCCC3)cc2)n2c1CCC2` was tested, and the TGI was greater than 100 µM. In the case of `O=[N+]([O-])C(C=C(n1nnc2ccccc21)n1nnc2ccccc21)=C(n1nnc2ccccc21)n1nnc2ccccc21`, the TGI is reported as greater than 100 µM.

Each molecule was assayed on A498 renal (assay: NCI anticancer screen, dose series, 48 h).
For `CCNC(=S)N/N=C(\C)c1cccc(C)n1`, the TGI was 45.3 µM. `CN1CCN([C@H]2C[C@H]3[C@@H]4CC=C5C[C@@H](O)CC[C@]5(C)[C@H]4CC[C@]3(C)[C@H]2O)CC1` was tested, and the TGI was greater than 100 µM. Work on `CC1C2(C)OCC(C#N)(C(=N)O2)C1(C#N)C#N` (stereo unspecified) yielded a TGI greater than 100 µM. With `C=CC[C@H](N=C(SC)SC)C(=O)N1C(=O)N(C)[C@@H](C)[C@H]1c1ccccc1` the TGI was greater than 100 µM. Molecule `CC(=O)c1sc2[n+](c1C)C(=O)/C(=C\c1ccccc1Cl)S2` has a TGI of 74.3 µM. `CCCCCCCCCCCCOP(=O)(O)OP(=O)(O)OCC1OC(n2cc(C)c(=O)[nH]c2=O)CC1O` (stereo unspecified) was tested, and the TGI was greater than 100 µM. In the case of `O=C1c2cc([N+](=O)[O-])sc2C(=O)c2c([N+](=O)[O-])csc21`, the TGI is reported as 3.34 µM. For `C[C@H](CCC(=O)NCC(=O)O)[C@H]1CC[C@H]2[C@@H]3[C@H](O)C[C@@H]4C[C@H](O)CC[C@]4(C)[C@H]3CC[C@]12C`, the TGI was greater than 100 µM. `CCOc1cc2c(cc1O)C(N)C[C@@H]1[C@@H]2CC[C@]2(C)[C@@H](O)CC[C@@H]12` (stereo partly specified) gave a TGI greater than 100 µM. Molecule `CC(C)C(NC(=O)C(Cc1ccccc1)NC(=O)[C@H]1CCC[C@H]1NC(=O)C(Cc1ccc(OC(C)(C)C)cc1)NC(=O)OC(C)(C)C)C(N)=O` (stereo partly specified) has a TGI of 27.6 µM. `Cc1ccc(NC(=O)CC(=O)n2nc(C)c(N=Nc3cccc(C)c3)c2C)cc1` gave a TGI greater than 100 µM. For `N#C/C(=C\c1ccc2[nH]ccc2c1)C(=O)c1ccc(O)c(O)c1`, the TGI was greater than 100 µM. `O=[N+]([O-])/C(C(Cl)=C(Cl)Cl)=C(/Nc1ccccc1)Sc1ccccc1` showed a TGI of 38.3 µM. `Cc1ccc2c(c1C)C(=O)/C(=C/c1cccc(C)c1C(=O)O)C2` was tested, and the TGI was 99.2 µM. With `O=C1N(c2ccccc2)C(=S)/C(=C/c2ccc(Cl)cc2)N1c1ccc(Cl)cc1` the TGI was greater than 100 µM. With `O=C1C=C(N2CCN(CCOCCO)CC2)C(=O)c2c(O)ccc(O)c21` the TGI was 27.8 µM. `CC/C(N)=N\NC(=O)OC(C)(C)C` gave a TGI greater than 100 µM.
